Assay results reported in PMC8779255, “Determining the Anticancer Activity of Sphingosine Kinase Inhibitors Containing Heteroatoms in Their Tail Structure” (Pharmaceutics, 2022).
pIC50: −log10 of the molar value.

Legend:
[1] = test system: HCT116 cells; experiment: MTT cell viability assay; format: cell-based, human
Procedure: (§1) The HT29 and HCT116 cells (human colon cancer), AGS (human gastric cancer), and MIA PaCa-2 cells (human pancreatic cancer) were purchased from Korean Cell Line Bank (Seoul, Korea). Cancer cells were maintained in RPMI (HT29 and AGS) and DMEM (HCT116 and MIA PaCa-2) culture media supplemented with 10% fetal bovine serum (FBS) and 100 U/mL penicillin and streptomycin at 37 °C in a 95% humidified incubator containing 5% CO2. The cytotoxic effect of the compounds was assessed using the MTT cell viability assay. Briefly, 3 × 10^3 cells/well were grown in 96-well plates for 24 h. After treatment with desired concentration of respective compounds for 24 h or 48 h, the EZ-CYTOTOX (10 µM) reagent was added in each well and incubated for 90 min. The absorbance was measured at 450 nm wavelength using Skanlt software 5.0 (Thermo Scientific, Waltham, MA, USA) installed on a Multiskan GO (Thermo Scientific, Waltham, MA, USA) spectrophotometer. Each experiment was independently repeated three times (n = 12).

[2] = test system: HT29 cells; experiment: MTT cell viability assay; format: cell-based, human
Procedure: as §1

[3] = target: T1, SK2 enzyme (Homo sapiens, UniProt Q9NRA0); experiment: SK activity assay (Adapta screening system); format: biochemical; conditions: 20 μM, Figure 5A
T1 construct: purchased Thermo Fisher Scientific
T1 sequence (Q9NRA0 whole entry): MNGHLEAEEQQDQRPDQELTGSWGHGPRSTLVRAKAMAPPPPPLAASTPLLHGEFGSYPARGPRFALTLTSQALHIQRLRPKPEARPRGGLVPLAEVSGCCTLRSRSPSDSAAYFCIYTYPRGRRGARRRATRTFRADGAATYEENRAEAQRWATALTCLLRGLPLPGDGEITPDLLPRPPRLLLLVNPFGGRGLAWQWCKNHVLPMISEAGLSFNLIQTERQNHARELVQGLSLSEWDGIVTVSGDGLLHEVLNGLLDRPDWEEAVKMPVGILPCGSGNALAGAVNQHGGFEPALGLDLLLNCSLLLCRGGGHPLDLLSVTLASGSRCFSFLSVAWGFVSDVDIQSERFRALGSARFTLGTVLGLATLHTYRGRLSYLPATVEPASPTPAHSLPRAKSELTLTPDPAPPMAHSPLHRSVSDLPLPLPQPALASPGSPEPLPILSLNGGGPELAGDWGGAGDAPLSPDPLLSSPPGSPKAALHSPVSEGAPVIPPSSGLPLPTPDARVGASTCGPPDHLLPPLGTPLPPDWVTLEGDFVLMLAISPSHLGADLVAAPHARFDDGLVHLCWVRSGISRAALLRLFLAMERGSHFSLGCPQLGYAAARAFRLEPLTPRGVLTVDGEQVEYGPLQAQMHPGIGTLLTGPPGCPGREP
Procedure: (§2) The effect of compounds in sphingosine kinase activity was examined using the […] screening system (Thermo Fisher Scientific System, Waltham, MA, USA). The kinase inhibition ability of compounds 1-11 along with RB005 was measured with final concentration of 20 μM. […] The data were presented as percentage inhibition of SK enzyme by individual compounds.

[4] = target: T2, SK1 enzyme (Homo sapiens, UniProt Q9NYA1); experiment: SK activity assay (Adapta screening system); format: biochemical; conditions: 20 μM, Figure 5A
T2 construct: purchased Thermo Fisher Scientific
T2 sequence (Q9NYA1 whole entry): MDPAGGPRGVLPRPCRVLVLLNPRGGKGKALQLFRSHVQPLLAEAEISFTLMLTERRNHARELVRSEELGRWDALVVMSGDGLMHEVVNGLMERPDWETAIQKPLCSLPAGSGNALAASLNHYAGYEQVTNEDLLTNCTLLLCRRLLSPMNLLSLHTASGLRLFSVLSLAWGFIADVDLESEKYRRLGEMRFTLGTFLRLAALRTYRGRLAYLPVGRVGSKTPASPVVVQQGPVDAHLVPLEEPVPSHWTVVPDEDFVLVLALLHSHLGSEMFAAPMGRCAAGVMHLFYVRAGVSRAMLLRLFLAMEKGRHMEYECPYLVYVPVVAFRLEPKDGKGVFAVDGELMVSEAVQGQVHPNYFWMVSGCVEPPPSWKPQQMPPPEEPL
Procedure: as §2

[5] = In vitro metabolic stability in liver microsomes; format: in vitro ADME, rat
[6] = test system: SK2; conditions: known compounds, Figure 1; cited from earlier work
[7] = target: CYP2C9 (Homo sapiens, UniProt P11712); experiment: Inhibition of CYP enzymes activity, human liver microsomes; conditions: human liver microsomes 0.25 mg/mL, 10 μM, diclofenac substrate
Chain of CYP2C9 (P11712 whole entry): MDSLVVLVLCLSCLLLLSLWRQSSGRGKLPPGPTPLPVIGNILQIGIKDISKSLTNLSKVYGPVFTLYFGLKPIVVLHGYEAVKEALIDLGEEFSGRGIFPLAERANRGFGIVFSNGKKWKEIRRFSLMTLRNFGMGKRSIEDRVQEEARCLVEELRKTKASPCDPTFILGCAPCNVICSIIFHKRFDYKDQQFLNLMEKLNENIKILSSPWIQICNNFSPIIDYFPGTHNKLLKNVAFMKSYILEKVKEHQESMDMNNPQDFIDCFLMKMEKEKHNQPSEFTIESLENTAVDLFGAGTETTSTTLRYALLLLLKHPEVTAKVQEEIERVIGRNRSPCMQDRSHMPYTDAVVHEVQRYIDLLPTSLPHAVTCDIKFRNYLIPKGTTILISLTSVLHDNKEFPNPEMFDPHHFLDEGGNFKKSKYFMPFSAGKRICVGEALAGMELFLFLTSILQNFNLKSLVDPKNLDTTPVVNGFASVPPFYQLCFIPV
Procedure: (§3) By simultaneously analyzing metabolites, the ability of the six compounds to inhibit drug metabolism enzymes was evaluated.
(§4) Metabolites of each CYP coenzyme indicator drug generated through the above reaction were analyzed using the Shimadzu Nexera XR system and TSQ vantage (Thermo). The HPLC column was a Kinetex C18 column (2.1 × 100 mm^2, 2.6 μm particle size; Phenomenex, Torrance, CA, USA), and the mobile phase was distilled water (A) containing 0.1% formic acid and acetonitrile (B) containing 0.1% formic acid. […] The generated metabolites were quantified using MRM (Multiple Reaction Monitoring) quantification modes, and data were analyzed using Xcalibur (version 1.6.1).

[8] = target: T3, PP2A in HCT116 cells (Homo sapiens, UniProt P67775); experiment: PP2A activity assay (immunoprecipitation kit); format: cell-based; conditions: HCT116, 24 h, 20 µM of compounds 10, 11 and 13; vs nontreated control cells
T3 construct: endogenous in cells; host or cells: HCT116
T3 sequence (P67775 whole entry): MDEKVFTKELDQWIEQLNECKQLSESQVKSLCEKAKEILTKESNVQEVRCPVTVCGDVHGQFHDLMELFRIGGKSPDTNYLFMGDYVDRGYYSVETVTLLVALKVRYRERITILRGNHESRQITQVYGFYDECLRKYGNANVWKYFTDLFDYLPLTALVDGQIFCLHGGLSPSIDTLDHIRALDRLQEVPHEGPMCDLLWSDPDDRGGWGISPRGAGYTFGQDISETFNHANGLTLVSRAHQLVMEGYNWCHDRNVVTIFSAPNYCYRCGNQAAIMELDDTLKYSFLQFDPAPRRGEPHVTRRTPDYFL
Procedure: The activity of PP2A was measured by using the PP2A kit according to the manufacturer’s instruction. The cell lysate was incubated with anti PP2A, C subunit antibody, and protein A agarose slurry for 2 h at 4 °C. The phosphopeptide solution (60 µL) was mixed and incubated at 30 °C for 10 min in a shaker. After a brief centrifuge, a 25 µL sample was liquated in ½ volume microplate and 100 µL malachite green phosphate detection working solution was added. After color development, absorbance was taken at 650 nm in a Multiskan GO microplate reader. A phosphate standard curve was constructed using phosphate standard, and results were calculated using this standard curve. This experiment was repeated three times (n = 6).

[9] = target: CYP2C19 (Homo sapiens, UniProt P33261); experiment: Inhibition of CYP enzymes activity, human liver microsomes; conditions: human liver microsomes 0.25 mg/mL, 10 μM, S-mephenytoin substrate
Chain of CYP2C19 (P33261 whole entry): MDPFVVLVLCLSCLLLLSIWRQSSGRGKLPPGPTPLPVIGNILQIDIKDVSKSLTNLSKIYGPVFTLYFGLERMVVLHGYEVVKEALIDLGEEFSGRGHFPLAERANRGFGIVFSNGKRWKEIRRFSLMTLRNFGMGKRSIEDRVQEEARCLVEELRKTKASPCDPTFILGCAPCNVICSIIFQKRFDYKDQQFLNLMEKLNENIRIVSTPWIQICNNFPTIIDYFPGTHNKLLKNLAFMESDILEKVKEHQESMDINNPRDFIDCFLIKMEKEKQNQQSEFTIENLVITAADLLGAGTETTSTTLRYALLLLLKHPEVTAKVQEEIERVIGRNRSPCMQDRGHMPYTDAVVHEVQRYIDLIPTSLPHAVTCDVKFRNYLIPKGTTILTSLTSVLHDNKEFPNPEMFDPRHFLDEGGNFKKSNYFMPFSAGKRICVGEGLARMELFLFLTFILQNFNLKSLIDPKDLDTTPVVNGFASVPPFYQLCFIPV
Procedure: as §3, §4

[10] = In vitro metabolic stability in liver microsomes
Procedure: Microsome incubation was measured in triplicate in a 1.5 mL Eppendorf tube with 0.1 M potassium phosphate buffer (pH 7.4). […] It has a final volume of 100 mL in the presence of an NADPH regeneration system. In the final incubation mixture, 0.5 mg/mL HLM, 0.1 M potassium phosphate buffer (pH 7.4), and NADPH regeneration system (1 mM NADPH, 10 mM MgCl2) were included. In the pre-incubation mixture, HLM was added, and the mixture was run in a shaking incubator at approximately 350 rpm and 37 °C for 5 min under a Thermomixer (Eppendorf, Hamburg, Germany). Reactions were initiated by the addition of 1 mM NADPH and then quenched by the addition of 40 μL of ice-cold acetonitrile containing 10 μM chlorpropamide (CPP) as an internal standard at 0 and 30 min. After quenching, centrifugation of the incubation mixture was performed at 15,000× g for 5 min at 4 °C. An aliquot of 2 µL of the supernatant was injected into the LC-MS/MS system. The LC-MS/MS system was Xcalibur version 1.1.1 (Thermo Fisher Scientific Inc., Waltham, MA, USA).

[11] = target: T4, CYP3A4 (Homo sapiens, UniProt P08684); experiment: Inhibition of CYP enzymes activity, human liver microsomes; format: in vitro ADME; conditions: human liver microsomes 0.25 mg/mL, 10 μM, midazolam substrate
T4 construct: Human liver microsomes (0.25 mg/mL); from tissue; host or cells: human liver microsomes
T4 sequence (P08684 whole entry): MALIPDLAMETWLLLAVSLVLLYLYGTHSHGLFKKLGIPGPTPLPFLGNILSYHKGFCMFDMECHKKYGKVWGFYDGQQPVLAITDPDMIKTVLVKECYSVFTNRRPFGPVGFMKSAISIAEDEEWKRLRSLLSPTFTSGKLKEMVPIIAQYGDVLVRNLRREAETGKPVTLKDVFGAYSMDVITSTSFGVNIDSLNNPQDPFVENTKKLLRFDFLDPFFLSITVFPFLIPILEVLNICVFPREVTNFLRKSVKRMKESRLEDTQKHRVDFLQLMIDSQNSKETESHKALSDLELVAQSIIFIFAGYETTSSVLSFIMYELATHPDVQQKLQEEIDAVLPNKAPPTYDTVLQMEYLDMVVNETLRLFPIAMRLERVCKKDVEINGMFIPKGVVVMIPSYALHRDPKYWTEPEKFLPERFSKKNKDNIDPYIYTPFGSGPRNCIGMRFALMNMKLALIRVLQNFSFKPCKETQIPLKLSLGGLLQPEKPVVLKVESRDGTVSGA
Procedure: as §3, §4

[12] = target: CYP2D6 (Homo sapiens, UniProt P10635); experiment: as above; conditions: human liver microsomes 0.25 mg/mL, 10 μM, dextromethorphan substrate
Chain of CYP2D6 (P10635 whole entry): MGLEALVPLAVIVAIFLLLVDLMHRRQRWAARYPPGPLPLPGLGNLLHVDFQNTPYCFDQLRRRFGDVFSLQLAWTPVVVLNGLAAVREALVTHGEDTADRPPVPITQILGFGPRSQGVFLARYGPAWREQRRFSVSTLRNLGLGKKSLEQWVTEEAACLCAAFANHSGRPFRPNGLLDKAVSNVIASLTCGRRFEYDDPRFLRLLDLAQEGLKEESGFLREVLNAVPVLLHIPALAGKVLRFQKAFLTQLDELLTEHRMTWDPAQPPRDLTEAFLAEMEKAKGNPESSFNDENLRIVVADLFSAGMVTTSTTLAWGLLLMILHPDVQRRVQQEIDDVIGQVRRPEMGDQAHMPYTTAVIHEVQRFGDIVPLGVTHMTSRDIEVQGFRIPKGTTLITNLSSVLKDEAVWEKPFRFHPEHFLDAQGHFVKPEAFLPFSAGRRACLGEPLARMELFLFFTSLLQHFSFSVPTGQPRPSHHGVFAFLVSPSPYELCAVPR
Procedure: (§5) Afterward, to terminate the reaction, an acetonitrile solution containing an internal standard (terfenadine) was added, centrifuged for 5 min (14,000 rpm, 4 °C), and the supernatant was injected into the LC-MS/MS system. By simultaneously analyzing metabolites, the ability of the six compounds to inhibit drug metabolism enzymes was evaluated.
as §4

[13] = test system: HT29 cells; experiment: Annexin V-FITC/PI staining, flow cytometry; format: cell-based, human; conditions: HT29, 10 and/or 20 µM, 24 h
Procedure: After treating HT29 and HCT116 cells with compounds 10, 11, 13 and FTY720 according to the manufacturer’s instruction, the annexin V and PI staining technique was employed to determine apoptosis in the cells. Briefly, cells (2.5 × 10^5 cells/well) were seeded in 12-well plates and treated with 10 and/or 20 µM of compounds for 24 h. Cells were collected using trypsin-EDTA and stained with annexin V-FITC dye for 15 min at room temperature, followed by PI staining for 20 min and analyzed by flow cytometer (MACSQuant Analyzer 10; Miltenyi Biotec, Bergisch Gladbach, Germany). The data was analyzed using MACSQuantify^TM version 2.8 software (Miltenyi Biotec, Bergisch Gladbach, Germany) and presented as early apoptosis, late apoptosis, or combined apoptosis percentage. Each experiment was repeated three times independently (n = 6).

[14] = In vitro metabolic stability in liver microsomes; format: in vitro ADME, mouse
[15] = test system: SK1; conditions: known compounds, Figure 1; cited from earlier work
[16] = target: T5, CYP1A2 (Homo sapiens, UniProt P05177); experiment: Inhibition of CYP enzymes activity, human liver microsomes; conditions: human liver microsomes 0.25 mg/mL, 10 μM, phenacetin substrate
T5 sequence (P05177 1-516): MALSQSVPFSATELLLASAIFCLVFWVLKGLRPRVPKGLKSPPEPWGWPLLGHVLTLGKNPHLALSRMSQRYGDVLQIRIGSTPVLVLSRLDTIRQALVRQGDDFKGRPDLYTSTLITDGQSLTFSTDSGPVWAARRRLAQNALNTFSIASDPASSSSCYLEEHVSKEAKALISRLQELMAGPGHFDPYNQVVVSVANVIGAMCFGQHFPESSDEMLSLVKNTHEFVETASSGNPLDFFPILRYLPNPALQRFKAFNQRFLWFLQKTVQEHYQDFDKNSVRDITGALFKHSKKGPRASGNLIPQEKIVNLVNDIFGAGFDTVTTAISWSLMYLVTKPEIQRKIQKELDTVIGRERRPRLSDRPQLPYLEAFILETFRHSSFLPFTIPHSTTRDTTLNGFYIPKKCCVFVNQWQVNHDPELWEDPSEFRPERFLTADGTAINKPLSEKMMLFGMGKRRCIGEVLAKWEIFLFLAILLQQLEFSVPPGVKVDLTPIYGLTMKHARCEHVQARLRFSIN
Procedure: as §5, §4

[17] = test system: S1PR5; design: method as in PMID 27297359; conditions: in Figure 1, no unit; cited from earlier work
[18] = test system: S1PR1; design: method as in PMID 27297359; conditions: in Figure 1, no unit; cited from earlier work
[19] = test system: S1PR4; design: method as in PMID 27297359; conditions: in Figure 1, no unit; cited from earlier work
[20] = test system: S1PR3; design: method as in PMID 27297359; conditions: in Figure 1, no unit; cited from earlier work
[21] = test system: S1PR2; design: method as in PMID 27297359; conditions: in Figure 1, no unit; cited from earlier work
[22] = % remaining after 30 min, NADPH

CCCCCCCOc1ccc(CCN2CCC(O)CC2)cc1 [Compound 3, 1-(4-(Heptyloxy)phenethyl)piperidin-4-ol]
cytotoxic effect (cell viability) ([1]; HCT116, 20 and 40 µM, 24 h, Figure 2B): only 40 µM concentration of compounds 3, 5 and 9 shows significant cytotoxic effect
cytotoxic effect (cell viability) ([2]; HT29, 20 and 40 µM, 24 h, Figure 2A): more cytotoxic than RB005 and 5-FU
SK1/2 inhibitory effect compared to RB005 (SK2) [3]: three times higher
SK1/2 inhibitory effect compared to RB005 (SK1) [4]: three times higher

CCCCCCCCc1ccc(CCC(N)(CO)CO)cc1 [FTY720]
liver microsomal stability, Rat (%) [5, 22]: 77.0%
liver microsomal stability (in words) ([5]; rat): stable
pIC50 [6]: 4.90 to 5.30
CYP2C9 activity (% of control activity) [7]: 96.8%
PP2A activity increase [8]: 1.65 fold
pIC50 ([1]; Homo sapiens, HCT-116, HCT116, 48 h treatment, 2.5–40 µM, read-out: relative IC50 (cell viability)): 5.38
pIC50 ([2]; Homo sapiens, HT-29, HT29, 48 h treatment, 2.5–40 µM, read-out: relative IC50 (cell viability)): 5.38
CYP2C19 activity (% of control activity) [9]: 86.8%
liver microsomal stability, Human (%) ([10]; % remaining after 30 min, 0.5 mg/mL microsomes, NADPH): 90.5%
liver microsomal stability (in words) ([10]; human): stable
CYP3A4 activity (% of control activity) [11]: >100%
CYP2D6 activity (% of control activity) [12]: 92.0%
apoptosis (annexin V assay) [13]: increased apoptosis
liver microsomal stability, Mouse (%) [14, 22]: 89.9%
liver microsomal stability (in words) ([14]; mouse): stable
pIC50 [15]: 4.90 to 5.30
CYP1A2 activity (% of control activity) [16]: 86.5%

CC1=C(CN2CC(C(=O)O)C2)CCc2cc(OCCCCc3ccccc3)ccc21 [Compound W-061]
Binding affinity, S1PR5 [17]: 10.5
Binding affinity, S1PR1 [18]: 4.11
Binding affinity, S1PR4 [19]: 65.4
Binding affinity, S1PR3 [20]: 1710
Binding affinity, S1PR2 [21]: > 43800
